The values that follow come from patent publication US20250223260A1, “Substituted Pyrrolidinyl And Piperidinyl Compounds And Related Methods Of Treatment” (Alkermes, Inc., priority 2022, published 2025).

The test addresses T1, human orexin-2 receptor (OX2R) (Homo sapiens, UniProt O43614).
T1 construct: expressed in transfected cells
T1 sequence (O43614 1-444): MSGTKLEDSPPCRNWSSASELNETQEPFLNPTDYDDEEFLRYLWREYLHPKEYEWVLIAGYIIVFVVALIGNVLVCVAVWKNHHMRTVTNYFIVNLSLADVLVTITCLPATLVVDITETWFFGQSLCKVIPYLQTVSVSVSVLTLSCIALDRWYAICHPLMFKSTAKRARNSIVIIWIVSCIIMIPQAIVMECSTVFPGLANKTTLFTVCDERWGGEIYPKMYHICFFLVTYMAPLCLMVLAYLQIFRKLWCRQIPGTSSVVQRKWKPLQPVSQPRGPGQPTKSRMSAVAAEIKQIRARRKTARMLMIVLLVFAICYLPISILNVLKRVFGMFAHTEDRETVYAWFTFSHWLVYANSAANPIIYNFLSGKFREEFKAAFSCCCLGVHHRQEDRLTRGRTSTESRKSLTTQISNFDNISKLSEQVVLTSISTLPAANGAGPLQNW
As to the kind of experiment: Human OX2R IP1 assay. The format is cell-based. To be noted: T-Rex CHO cells stably overexpressing human OX2R; IP1 accumulation (HTRF); 1 hr at 37 degrees C. The procedure:
T-Rex CHO cells stably overexpressing the human orexin-2 receptor (OX2R) are induced overnight with 1 μg/mL of doxycycline in a T225 flask. 24 hours post induction, cells are lifted with accutase and plated into a 384-well proxy plate at 30,000 cells/well. Cells are then treated with different test compounds in 1× stimulation buffer containing 10 mM Hepes, 1 mM CaCl2, 0.5 mM MgCl2, 4.2 mM KCl, 146 mM NaCl, 5.5 mM glucose, and 50 mM LiCl, pH 7.4, for 1 hr at 37 degrees C. Following incubation, the reaction is terminated by the addition of detection mix, which is composed of IP1-d2 and anti-IP1-cryptate diluted in lysis buffer as well as 1× stimulation buffer. The plates are allowed to incubate for 1 hour at room temperature and are then read in the EnVision® multimode plate reader, measuring inositol phosphate levels.
Cisbio IP1 is a cell-based functional assay quantifying the accumulation of inositol monophosphate (IP), a metabolite released as a result of orexin 2 receptor activation through the phospholipase C-Gq signaling pathway. This is a competitive immunoassay in which the IP1 produced by the cells upon receptor activation competes with the IP1 analog coupled to the d2 fluorophore (acceptor) for binding to an anti-IP1 monoclonal antibody labeled with Eu cryptate (donor). The measured HTRF-FRET based signal is inversely proportional to the IP1 concentration produced.
The EC50 values reported in Table 2 were obtained according to the human OX2R IP1 assay described above. Data are the mean EC50 values ±S.E.M.

Regarding `CS(=O)(=O)N[C@@H]1CCN(C(=O)C2CC2)C[C@@H]1OC[C@H]1CC[C@@H](c2ccccc2)CC1` (single isomer, unassigned) [Compound 37, N-[cis-1-cyclopropanecarbonyl-3-[(cis-4-phenylcyclohexyl)methoxy]piperidin-4-yl]methanesulfonamide], the EC50 (commonly the concentration needed to bring the measured effect to its halfway point) was 0.1 to 10 µM.
The figure for `CC(C)(O)C(=O)N1CC[C@@H](NS(C)(=O)=O)[C@@H](OC[C@H]2CC[C@@H](c3ccccc3)CC2)C1` (single isomer, unassigned) [Compound 38] is 0.1 to 10 µM.
The figure for `CS(=O)(=O)N[C@H]1CCN(c2ncco2)C[C@H]1OC[C@H]1CC[C@@H](c2ccccc2)CC1` (single isomer, unassigned) [Compound 39, N-(cis-1-(oxazol-2-yl)-3-((cis-4-phenylcyclohexyl)methoxy)piperidin-4-yl)methanesulfonamide] is 0.1 to 10 µM; for `COC(=O)N1CC[C@H](NS(C)(=O)=O)[C@H](OC[C@H]2CC[C@@H](c3ccccc3)CC2)C1` (single isomer, unassigned) [Compound 40] it is 0.1 to 10 µM; for `COC(=O)N1CC[C@@H](NS(C)(=O)=O)[C@@H](OC[C@H]2CC[C@@H](c3ccccc3)CC2)C1` (single isomer, unassigned) [Compound 41] it is > 10 µM.
In the case of `CS(=O)(=O)N[C@@H]1CCN(C(=O)C2(O)CCC2)C[C@@H]1OC[C@H]1CC[C@@H](c2ccccc2)CC1` (single isomer, unassigned) [Compound 43] it was < 0.1 µM; in that of `CS(=O)(=O)N[C@@H]1CCN(C(=O)C2(O)CCC2)C[C@@H]1OCC1CCC(c2ccccc2)CC1` (single isomer, unassigned) [Compound 44], > 10 µM.
Consider `CC1(C(=O)N2CC[C@H](NS(C)(=O)=O)[C@H](OCC3CCC(c4ccccc4)CC3)C2)COC1` (single isomer, unassigned) [Compound 45], for which the EC50 was 0.1 to 10 µM.
The figure for `CC1(C(=O)N2CC[C@@H](NS(C)(=O)=O)[C@@H](OCC3CCC(c4ccccc4)CC3)C2)COC1` (single isomer, unassigned) [Compound 46] is > 10 µM.
As to `Cn1ccc(N2CC[C@H](NS(C)(=O)=O)[C@H](OC[C@H]3CC[C@@H](c4ccccc4)CC3)C2)n1` (single isomer, unassigned) [Compound 47], the 50% effective concentration (EC50) fell in the range of 0.1 to 10 µM.
In the case of `Cn1ccc(N2CC[C@@H](NS(C)(=O)=O)[C@@H](OC[C@H]3CC[C@@H](c4ccccc4)CC3)C2)n1` (single isomer, unassigned) [Compound 48] it was > 10 µM.
Turning to `CS(=O)(=O)N[C@H]1CCN(C(=O)C2(F)CCC2)C[C@H]1OCC1CCC(c2ccccc2)CC1` (single isomer, unassigned) [Compound 49], the concentration for a half-maximal effect (EC50) is < 0.1 µM.
The figure for `CS(=O)(=O)N[C@@H]1CCN(C(=O)C2(F)CCC2)C[C@@H]1OCC1CCC(c2ccccc2)CC1` (single isomer, unassigned) [Compound 50] is 0.1 to 10 µM.
The figure for `CS(=O)(=O)N[C@H]1CCN(C2COC2)C[C@H]1OC[C@H]1CC[C@@H](c2ccccc2)CC1` (single isomer, unassigned) [Compound 51] is > 10 µM.
Regarding `CS(=O)(=O)N[C@@H]1CCN(C2COC2)C[C@@H]1OC[C@H]1CC[C@@H](c2ccccc2)CC1` (single isomer, unassigned) [Compound 52], the concentration for a half-maximal effect (EC50) is > 10 µM.
Consider `Cn1ccnc1N1CC[C@H](NS(C)(=O)=O)[C@H](OCC2CCC(c3ccccc3)CC2)C1` (single isomer, unassigned) [Compound 53], for which the EC50 was > 10 µM.
The figure for `Cn1ccnc1N1CC[C@@H](NS(C)(=O)=O)[C@@H](OC[C@H]2CC[C@@H](c3ccccc3)CC2)C1` (single isomer, unassigned) [Compound 54] is 0.1 to 10 µM; for `CS(=O)(=O)N[C@H]1CCN(c2cccnn2)C[C@H]1OC[C@H]1CC[C@@H](c2ccccc2)CC1` (single isomer, unassigned) [Compound 55] it is < 0.1 µM.
In turn, `CS(=O)(=O)N[C@@H]1CCN(c2cccnn2)C[C@@H]1OC[C@H]1CC[C@@H](c2ccccc2)CC1` (single isomer, unassigned) [Compound 56] had a concentration giving a half-maximal response (EC50) of 0.1 to 10 µM.
In the case of `CS(=O)(=O)N[C@H]1CCN(CC2COC2)C[C@H]1OC[C@H]1CC[C@@H](c2ccccc2)CC1` (single isomer, unassigned) [Compound 57] it was > 10 µM; in that of `CS(=O)(=O)N[C@@H]1CCN(CC2COC2)C[C@@H]1OC[C@H]1CC[C@@H](c2ccccc2)CC1` (single isomer, unassigned) [Compound 58], > 10 µM.
`Cn1cnc(N2CC[C@H](NS(C)(=O)=O)[C@H](OCC3CCC(c4ccccc4)CC3)C2)c1` (single isomer, unassigned) [Compound 59]: the EC50 lay within 0.1 to 10 µM.
In the case of `Cn1cnc(N2CC[C@@H](NS(C)(=O)=O)[C@@H](OC[C@H]3CC[C@@H](c4ccccc4)CC3)C2)c1` (single isomer, unassigned) [Compound 60] it was > 10 µM; in that of `C[C@@H](C1COC1)N1CC[C@H](NS(C)(=O)=O)[C@H](OCC2CCC(c3ccccc3)CC2)C1` (single isomer, unassigned) [Compound 61], > 10 µM.
Regarding `C[C@@H](C1COC1)N1CC[C@@H](NS(C)(=O)=O)[C@@H](OCC2CCC(c3ccccc3)CC2)C1` (single isomer, unassigned) [Compound 62], the 50% effective concentration (EC50) is > 10 µM.
The figure for `C[C@H](C1COC1)N1CC[C@H](NS(C)(=O)=O)[C@H](OCC2CCC(c3ccccc3)CC2)C1` (single isomer, unassigned) [Compound 63] is > 10 µM.
Regarding `C[C@H](C1COC1)N1CC[C@@H](NS(C)(=O)=O)[C@@H](OCC2CCC(c3ccccc3)CC2)C1` (single isomer, unassigned) [Compound 64], the 50% effective concentration (EC50) was > 10 µM.
The figure for `CS(=O)(=O)N[C@H]1CCN(C(=O)C2CCC2)C[C@H]1OCC1CCC(c2ccccc2)CC1` (single isomer, unassigned) [Compound 65] is < 0.1 µM; for `CS(=O)(=O)N[C@@H]1CCN(C(=O)C2CCC2)C[C@@H]1OCC1CCC(c2ccccc2)CC1` (single isomer, unassigned) [Compound 66] it is 0.1 to 10 µM.
In the case of `CS(=O)(=O)N[C@@H]1CCN(C(=O)C2(F)CC2)C[C@@H]1OC[C@H]1CC[C@@H](c2ccccc2)CC1` (single isomer, unassigned) [Compound 67] it was < 0.1 µM; in that of `CS(=O)(=O)N[C@@H]1CCN(C(=O)C2(F)CC2)C[C@@H]1OCC1CCC(c2ccccc2)CC1` (single isomer, unassigned) [Compound 68], 0.1 to 10 µM; in that of `CS(=O)(=O)N[C@H]1CCN(CC2(F)CCC2)C[C@H]1OCC1CCC(c2ccccc2)CC1` (single isomer, unassigned) [Compound 69], 0.1 to 10 µM.
The figure for `CS(=O)(=O)N[C@@H]1CCN(CC2(F)CCC2)C[C@@H]1OCC1CCC(c2ccccc2)CC1` (single isomer, unassigned) [Compound 70] is > 10 µM.
On to `COC1(C(=O)N2CC[C@H](NS(C)(=O)=O)[C@H](OC[C@H]3CC[C@@H](c4ccccc4)CC3)C2)CCC1` [Compound 42], for which the EC50 lay in the range of 0.1 to 10 µM.
